Data taken from US20090215783A1, “COMPOSITION FOR INDUCTION OR INHIBITION OF STEM CELL DIFFERENTIATION” (CHOONGWAE PHARMA CORPORATION, priority 2006, published 2009).

Tests used:
[1] = system: human bone marrow derived-mesenchymal stem cells (hBMMSC); experiment: Osteogenesis modulating activity assay by test compound alone (ALP activity); type: cell-based; conditions: Homo sapiens, 168 h; hBMMSC, 20 μM test compound alone, six to seven days; read-out: Osteogenesis: fold change of ALP activity compared with DMSO control
Experimental: Cell culture: Human bone marrow derived-mesenchymal stem cells (hBMMSC) were isolated from normal subjects.
Osteogenesis modulating activity assay by test compound alone: hBMMSC were cultivated in the culture medium and cells were seeded into 96-well culture plates and test compounds were dissolved in DMSO and diluted with culture media (final 0.01% DMSO) and added into the media (final concentration of test compound was 20 μM) and cultured in the CO2 incubator (37° C., 5% CO2). Culture medium was changed every two days with fresh one and compound was treated again whenever medium was changed. Six to seven days after incubation, Alkaline phosphatase activity of cell lysates was measured by colorimetry. For the determination of mineralization within the cells, Von Kossa staining or Alizarin Red S assay was performed 10-14 days after incubation.

[2] = system: Mouse embryonic stem (ES) cells, TC1; experiment: Cardiomyogenesis modulating activity assay (alpha-MHC promoter EGFP, embryoid bodies, FACS/fluorescence microscopy); type: cell-based; conditions: embryoid bodies treated for 5 days, FACS
Experimental: a. Cell culture: Mouse embryonic stem (ES) cells, TC1 derived from 129/S6 strain were cultured on irradiated feeder layer in the culture medium which is high-glucose DMEM (Gibco) BRL, Germany) supplemented with 15% FBS (Hyclone), 0.1 mM beta-mercaptoethanol, […] sodium pyruvate, 1 mM L-glutamine and 1× non-essential amino acids.
b. Establishment of alpha-MHC stably transformed ES cell line: A construct (FIG. 8) containing 1.8 kb promoter sequence of the mouse alpha-MHC gene between EcoRI and SalI sites of pEGFP-1 (Clontech Laboratories, Inc, CA, USA) was linearized at XhoI site, and was introduced into mouse ES cells, TC1, using the Gene Pulser II (BioRad, MA). A selection medium containing G418 was applied for two weeks from 24 hours after electroporation. The selected ES cell clones were harvested and expanded on the feeder cell layer. The green fluorescence-expressing clones when differentiated into cardiomyocytes were used in this experiment.
c. Cardiomyogenesis modulating activity assay: Embryoid body (EB) was formed by hanging drop culture using about a number of 600 (six hundred) ES cells for two days and it was further expanded by culturing in suspension condition on a Petri-dish for another two days. Then each EB was plated on a well of 96 well culture plates. Test compounds were dissolved in DMSO and diluted with culture media (final 0.05% DMSO) and EB was treated with test compound for 5 days. Culture medium was changed every three days after plating. Expression level of EGFP was measured with FACS (Beckman). For FACS analysis, differentiating cells were dissociated with trypsin. For the determination of the extent of differentiation, EB was observed and photographed with an inverted fluorescence microscope (Zeiss, Germany). Number of beating EBs was counted under the microscope and recorded once daily.

| Structure (SMILES) | fold induction at 20 µM [1] | Cardiomyogenesis: fold change of EGFP expression level compared with DMSO control [2] |
| --- | --- | --- |
| CN1CC(=O)N2[C@@H](COCc3ccccc3)C(=O)N(CCc3ccccc3)C[C@@H]2N1C(=O)NCc1ccccc1 [#32] | 0.94 | 0.95 fold |
| CN1C(=O)N2[C@@H](Cc3ccc(O)cc3)C(=O)N(CCc3ccc(F)cc3)C[C@@H]2N1C(=O)NCc1ccccc1 [#99] | 0.46 | 1.74 fold |
| O=C1[C@H](Cc2ccc(F)c(F)c2)N2C(=O)CN(Cc3ccccc3)N(C(=O)NCc3ccccc3)C2CN1CCc1ccc(Cl)cc1 (stereo partly shown) [#81] | 1.84 | 0.81 fold |
| CN1CC(=O)N2C(CN(Cc3ccc(Cl)c(Cl)c3)C(=O)[C@H]2Cc2ccc(O)cc2)N1C(=O)NCc1cccnc1 (stereo partly shown) [#6] | 0.51 | 0.47 fold |
| CC(C)C[C@@H]1C(=O)N(CCc2ccc(Cl)cc2)CC2N1C(=O)CN(Cc1ccccc1)N2C(=O)NCc1ccccc1 (stereo partly shown) [#74] | 0.54 | 1.59 fold |
| C=CCN1CC(=O)N2C(Cc3ccc(O)cc3)C(=O)N(Cc3ccc(F)cc3F)C[C@H]2N1C(=O)NCc1ccccc1 (stereo partly shown) [#13] | 0.47 | 1.02 fold |
| CCCN1CC(=O)N2C(CC(=O)O)C(=O)N(CCC(C)C)C[C@H]2N1C(=O)NCc1ccccc1 (stereo partly shown) [#94] | 0.69 | 3.02 fold |
| CN1CC(=O)N2[C@H](Cc3ccccc3)C(=O)N(CCc3ccccc3)C[C@H]2N1C(=O)NCc1ccccc1 [#31] | 1 | 1.10 fold |
| COc1ccc(CN2C[C@H]3N(C(=O)CN(C)N3C(=O)NCc3ccccc3)[C@@H](Cc3ccccc3)C2=O)cc1 [#22] | 0.7 | 1.16 fold |
| CCCCN1C[C@H]2N(C(=O)CN(C)N2C(=O)NCc2ccccc2)[C@@H](Cc2ccc(Cl)cc2)C1=O [#30] | 1.12 | 1.75 fold |
| CCCCNC(=O)N1C2CN(CCc3ccc(OC)cc3)C(=O)[C@H](CC(=O)O)N2C(=O)CN1Cc1ccc(C)cc1 (stereo partly shown) [#98] | 0.26 | 3.34 fold |
| COc1ccc(CN2C[C@H]3N(C(=O)CN(C)N3C(=O)NCc3ccccc3)[C@@H](C(C)C)C2=O)cc1 [#21] | 1.21 | 0.62 fold |
| CCC(C)[C@H]1C(=O)N(Cc2cccc(Cl)c2)C[C@H]2N1C(=O)N(C)N2C(=O)NCc1ccccc1 (stereo partly shown) [#109] | 1 | 0.97 fold |
| CCC(C)[C@H]1C(=O)N(Cc2ccc(OC)cc2)C[C@H]2N1C(=O)CN(C)N2C(=O)NCc1ccccc1 (stereo partly shown) [#23] | 0.86 | 1.69 fold |
| COc1ccc(CN2C[C@H]3N(C(=O)CN(C)N3C(=O)NCc3ccccc3)[C@@H](CC(C)C)C2=O)cc1 [#20] | 1.06 | 2.17 fold |
| CCC[C@H]1C(=O)N(Cc2ccc(OC)cc2)C[C@H]2N1C(=O)CN(C)N2C(=O)NCc1ccccc1 [#24] | 0.85 | 1.57 fold |

| Structure (SMILES) | fold induction at 20 µM [1] | Cardiomyogenesis: fold change of EGFP expression level compared with DMSO control [2] |
| --- | --- | --- |
| C=CCN1CC(=O)N2[C@@H](c3ccccc3)C(=O)N(CCc3ccccc3)C[C@@H]2N1C(=O)NCc1ccccc1 [#90] | 0.51 | 2.10 fold |
| C=CCN1CC(=O)N2[C@@H](Cc3ccc(OCc4ccccc4)cc3)C(=O)N(Cc3ccc(F)cc3)C[C@@H]2N1C(=O)NCc1ccccc1 [#83] | 0.36 | 2.02 fold |
| CCCCNC(=O)N1[C@H]2CN(CCc3ccc(OC)cc3)C(=O)[C@H](CC(C)C)N2C(=O)CN1Cc1ccc(C)cc1 [#97] | 0.54 | 0.71 fold |
| C=CCN1CC(=O)N2C(CC(=O)O)C(=O)N(CCc3ccccc3)C[C@@H]2N1C(=O)NCc1ccccc1 (stereo partly shown) [#88] | 0.64 | 1.34 fold |
| CN1CC(=O)N2C(Cc3ccc(Oc4ccccc4)cc3)C(=O)N(Cc3cccc4ccccc34)CC2N1C(=O)NCc1ccccc1 (stereo not shown) [#1] | 0.36 | 1.21 fold |
| CN1CC(=O)N2C(Cc3ccc(OCc4ccccc4)cc3)C(=O)N(CCCc3ccccc3)CC2N1C(=O)NCc1ccccc1 (stereo not shown) [#27] | 0.96 | 0.52 fold |
| CCCCNC(=O)N1[C@H]2CN([C@@H](C)c3ccccc3)C(=O)[C@H](CC(C)C)N2C(=O)CN1Cc1ccc(C)cc1 [#46] | 1.02 | 1.90 fold |
| CCCCNC(=O)N1C2CN(CCCCc3ccccc3)C(=O)C(CC(=O)O)N2C(=O)CN1Cc1cccc(F)c1 (stereo not shown) [#43] | 0.33 | 1.17 fold |
| CCC(CC)N1CC2N(C(=O)N(C)N2C(=O)NCc2ccccc2)[C@@H](Cc2ccc(O)cc2)C1=O (stereo partly shown) [#104] | 1.42 | 0.62 fold |
| C#CCNC(=O)N1[C@H]2CN(Cc3cccc4ccccc34)C(=O)[C@H](Cc3ccc(O)cc3)N2C(=O)CN1C [#12] | 0.76 | 1.27 fold |
| CN1CC(=O)N2[C@@H](Cc3ccc(Cl)cc3)C(=O)N(CCCc3ccccc3)C[C@@H]2N1C(=O)NCc1ccccc1 [#29] | 0.91 | 1.71 fold |
| CCC(C)[C@H]1C(=O)N(CC2CCCCC2)C[C@H]2N1C(=O)N(C)N2C(=O)NCc1ccccc1 (stereo partly shown) [#101] | 1.28 | 2.32 fold |
| CC[C@H]1C(=O)N(Cc2cccc(C(F)(F)F)c2)C[C@H]2N1C(=O)CN(Cc1ccc(F)cc1)N2C(=O)NCc1ccccc1 [#68] | 0.91 | 0.69 fold |
| CCCC[C@H]1C(=O)N(CCc2ccc(OC)c(OC)c2)C[C@H]2N1C(=O)N(C)N2C(=O)NCc1ccccc1 [#102] | 1.61 | 1.01 fold |
| CN1CC(=O)N2[C@@H](Cc3ccc(F)cc3)C(=O)N(CCc3ccccc3)C[C@@H]2N1C(=O)NCc1ccccc1 [#38] | 0.48 | 0.69 fold |
| O=C1[C@H](CC2CCCCC2)N2C(=O)CN(Cc3ccc(F)cc3)N(C(=O)NCc3ccccc3)[C@H]2CN1Cc1cccc(C(F)(F)F)c1 [#69] | 0.71 | 1.69 fold |
